Data taken from ChEMBL document CHEMBL1155844, “Pyrazole inhibitors of coactivator associated arginine methyltransferase 1 (CARM1)” (Bioorg Med Chem Lett, 2008).

Each molecule was assayed against Protein arginine N-methyltransferase 1 (Homo sapiens, UniProt Q99873) (assay: Inhibition of GST-tagged PRMT1 by methylation assay).
Protein arginine N-methyltransferase 1, sequence (Q99873 whole entry): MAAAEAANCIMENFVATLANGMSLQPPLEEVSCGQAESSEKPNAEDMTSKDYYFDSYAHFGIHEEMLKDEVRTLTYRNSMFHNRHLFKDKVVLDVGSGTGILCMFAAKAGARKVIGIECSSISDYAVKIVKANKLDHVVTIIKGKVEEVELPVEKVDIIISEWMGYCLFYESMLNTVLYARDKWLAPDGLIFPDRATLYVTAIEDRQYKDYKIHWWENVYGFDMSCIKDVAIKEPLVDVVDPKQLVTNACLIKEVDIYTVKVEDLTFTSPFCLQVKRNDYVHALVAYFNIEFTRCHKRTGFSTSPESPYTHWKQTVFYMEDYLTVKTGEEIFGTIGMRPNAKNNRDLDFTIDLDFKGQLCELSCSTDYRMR
`C[C@H](N)C(=O)NCc1cccc(-n2nc(C(F)(F)F)cc2C(=O)NCc2ccccc2)c1` showed an IC50 of over 25 µM.

Each molecule was assayed against T1, Histone-arginine methyltransferase CARM1 (Homo sapiens, UniProt Q86X55) (assay: Inhibition of human GST-tagged CARM1 by methylation assay).
T1 sequence (Q86X55 whole entry): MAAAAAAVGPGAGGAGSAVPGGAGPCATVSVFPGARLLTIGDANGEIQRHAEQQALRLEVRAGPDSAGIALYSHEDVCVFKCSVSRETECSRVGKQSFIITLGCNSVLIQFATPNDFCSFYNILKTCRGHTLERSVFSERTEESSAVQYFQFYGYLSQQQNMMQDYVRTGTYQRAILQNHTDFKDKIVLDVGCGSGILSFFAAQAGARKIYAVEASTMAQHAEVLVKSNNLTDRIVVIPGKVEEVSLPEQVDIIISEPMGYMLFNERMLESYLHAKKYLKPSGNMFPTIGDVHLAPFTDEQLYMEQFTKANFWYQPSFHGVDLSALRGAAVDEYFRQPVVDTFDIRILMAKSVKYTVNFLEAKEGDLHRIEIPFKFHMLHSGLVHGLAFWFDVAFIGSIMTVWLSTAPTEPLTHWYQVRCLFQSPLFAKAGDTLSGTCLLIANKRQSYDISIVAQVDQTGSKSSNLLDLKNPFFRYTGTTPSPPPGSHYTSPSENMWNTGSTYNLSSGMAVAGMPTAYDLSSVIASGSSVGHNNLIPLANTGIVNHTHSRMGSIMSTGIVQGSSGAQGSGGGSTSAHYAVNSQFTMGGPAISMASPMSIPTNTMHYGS
For `CNCC(=O)NCc1cccc(-n2nc(C(F)(F)F)cc2C(=O)Nc2ccc(-c3ccccc3S(C)(=O)=O)cc2F)c1`, the IC50 was over 30 µM. Molecule `CC(C)(N)C(=O)NCc1cccc(-n2nc(C(F)(F)F)cc2C(=O)Nc2ccc(-c3ccccc3S(C)(=O)=O)cc2F)c1` has an IC50 of over 30 µM. For `C[C@H](N)C(=O)NCc1cccc(-n2nc(C(F)(F)F)cc2C(=O)NCc2ccccc2)c1`, the IC50 was 0.08 µM. With `C[C@H](N)C(=O)NCc1cccc(-n2nc(C(F)(F)F)cc2C(=O)Nc2ccccc2)c1` the IC50 was 1.32 µM. With `C[C@H](N)C(=O)NCc1cccc(-n2nc(C(F)(F)F)cc2C(=O)N(C)Cc2ccccc2)c1` the IC50 was 3.4 µM. For `CN(C)C(=O)c1cc(C(F)(F)F)nn1-c1cccc(CNC(=O)CN)c1`, the IC50 was 29.8 µM. Molecule `CS(=O)(=O)c1cccc(NC(=O)c2cc(C(F)(F)F)nn2-c2cccc(CNC(=O)CN)c2)c1` has an IC50 of 0.23 µM. Molecule `C[C@H](N)C(=O)NCc1cccc(-n2nc(C(F)(F)F)cc2C(=O)N[C@H](C)c2ccccc2)c1` has an IC50 of 0.18 µM. With `C[C@H](N)C(=O)NCc1cccc(-n2nc(C(F)(F)F)cc2C(=O)NCCc2ccccc2)c1` the IC50 was 1.1 µM. With `C[C@H](N)C(=O)NCc1cccc(-n2nc(C(F)(F)F)cc2C(=O)NC2CCCCC2)c1` the IC50 was 4.3 µM. In the case of `CNC(=O)c1cc(C(F)(F)F)nn1-c1cccc(CNC(=O)CN)c1`, the IC50 is reported as 10.6 µM. Work on `C[C@H](N)C(=O)NCc1cccc(-n2nc(C(F)(F)F)cc2C(=O)N[C@@H](C)c2ccccc2)c1` yielded an IC50 of 7.1 µM. `C[C@H](N)C(=O)NCc1cccc(-n2nc(C(F)(F)F)cc2NC(=O)OCc2ccccc2)c1` showed an IC50 of 0.6 µM. For `C[C@H](N)C(=O)NCc1ccc(-n2nc(C(F)(F)F)cc2C(=O)NCc2ccccc2)cc1`, the IC50 was over 50 µM. With `NCC(=O)NCc1cccc(-n2nc(C(F)(F)F)cc2C(=O)Nc2ccc(-c3ccccc3)cc2)c1` the IC50 was 1.42 µM. `CS(=O)(=O)c1ccccc1-c1ccc(NC(=O)c2cc(C(F)(F)F)nn2-c2cccc(CNC(=O)CCN)c2)c(F)c1` gave an IC50 of 16.9 µM. In the case of `C[C@H](N)C(=O)NCc1cccc(-n2nc(C(F)(F)F)cc2C(=O)Nc2ccc(-c3ccccc3S(C)(=O)=O)cc2F)c1`, the IC50 is reported as 0.16 µM. In the case of `C[C@@H](N)C(=O)NCc1cccc(-n2nc(C(F)(F)F)cc2C(=O)Nc2ccc(-c3ccccc3S(C)(=O)=O)cc2F)c1`, the IC50 is reported as 20.1 µM. `CS(=O)(=O)c1ccccc1-c1ccc(NC(=O)c2cc(C(F)(F)F)nn2-c2cccc(CNC(=O)C(N)C(F)(F)F)c2)c(F)c1` (centres undefined) gave an IC50 of over 30 µM. With `NCC(=O)NCc1cccc(-n2nc(C(F)(F)F)cc2C(=O)Nc2ccccc2)c1` the IC50 was 7.7 µM. Work on `C[C@H](N)C(=O)NCc1ccccc1-n1nc(C(F)(F)F)cc1C(=O)NCc1ccccc1` yielded an IC50 of over 50 µM. Molecule `CS(=O)(=O)c1ccccc1-c1ccc(NC(=O)c2cc(C(F)(F)F)nn2-c2cccc(CNC(=O)CN)c2)cc1` has an IC50 of 1.8 µM.

The molecules below were run against Protein arginine N-methyltransferase 3 (Homo sapiens, UniProt O60678) (assay: Inhibition of GST-tagged PRMT3 by methylation assay).
Protein arginine N-methyltransferase 3, sequence (O60678 whole entry): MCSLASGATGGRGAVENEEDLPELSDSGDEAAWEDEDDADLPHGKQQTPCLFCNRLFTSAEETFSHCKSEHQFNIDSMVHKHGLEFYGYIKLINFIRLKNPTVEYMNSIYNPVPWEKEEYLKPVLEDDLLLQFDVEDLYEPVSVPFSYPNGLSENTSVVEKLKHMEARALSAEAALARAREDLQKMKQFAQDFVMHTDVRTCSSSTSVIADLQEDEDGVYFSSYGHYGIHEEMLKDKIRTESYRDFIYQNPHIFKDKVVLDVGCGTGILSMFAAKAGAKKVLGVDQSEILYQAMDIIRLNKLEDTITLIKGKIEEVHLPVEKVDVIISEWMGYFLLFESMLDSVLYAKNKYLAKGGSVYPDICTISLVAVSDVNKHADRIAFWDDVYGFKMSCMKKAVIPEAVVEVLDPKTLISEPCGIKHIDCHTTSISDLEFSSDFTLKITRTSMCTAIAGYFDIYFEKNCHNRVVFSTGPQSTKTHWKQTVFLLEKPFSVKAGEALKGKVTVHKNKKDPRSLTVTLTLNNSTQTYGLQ
In the case of `C[C@H](N)C(=O)NCc1cccc(-n2nc(C(F)(F)F)cc2C(=O)NCc2ccccc2)c1`, the IC50 is reported as over 25 µM.
